From patent US20110183991A1, “5HT7 RECEPTOR LIGANDS AND COMPOSITIONS COMPRISING THE SAME” (LABORATORIOS DEL DR. ESTEVE, S.A., priority 2008, published 2011)

Experiments:
[1] = target: T1, Cloned Human Serotonin Receptor, Subtype 7 (h5HT7), expressed in CHO cells (Homo sapiens, UniProt P34969); assay: Radioligand binding assay, [125I]LSD, cloned human 5HT7 receptor on Flashplate
T1 construct: purchased PerkinElmer 6120512; host or cells: CHO cells
Description: The protocol assay was essentially the recommended protocol in the Technical Data Sheet by PerkinEmer Life and Analytical Sciences. The Mass membrane protein/well was typically 12 μg and the Receptor/well was about 9-10 fmoles. The Flashplate were let equilibrate at room temperature for one hour before the addition of the components of the assay mixture. The binding buffer was: 50 mM Tris-HCl, pH 7.4, containing 10 mM MgCl2, 0.5 mM EDTA and 0.5% BSA. […] Nonspecific binding was determined with 50 μM of Clozapine. The assay volume was 25 μl. TopSeal-A were applied onto Flashplate microplates and they were incubated at room temperature for 240 minutes in darkness.

5HT7 receptor = 5HT7 receptor (Homo sapiens, UniProt P34969); assay: 5HT7 agonist functionality (EC50 agonist); type: cell-based; settings: screening data, agonist reference hit
Sequence of 5HT7 receptor (P34969 whole entry): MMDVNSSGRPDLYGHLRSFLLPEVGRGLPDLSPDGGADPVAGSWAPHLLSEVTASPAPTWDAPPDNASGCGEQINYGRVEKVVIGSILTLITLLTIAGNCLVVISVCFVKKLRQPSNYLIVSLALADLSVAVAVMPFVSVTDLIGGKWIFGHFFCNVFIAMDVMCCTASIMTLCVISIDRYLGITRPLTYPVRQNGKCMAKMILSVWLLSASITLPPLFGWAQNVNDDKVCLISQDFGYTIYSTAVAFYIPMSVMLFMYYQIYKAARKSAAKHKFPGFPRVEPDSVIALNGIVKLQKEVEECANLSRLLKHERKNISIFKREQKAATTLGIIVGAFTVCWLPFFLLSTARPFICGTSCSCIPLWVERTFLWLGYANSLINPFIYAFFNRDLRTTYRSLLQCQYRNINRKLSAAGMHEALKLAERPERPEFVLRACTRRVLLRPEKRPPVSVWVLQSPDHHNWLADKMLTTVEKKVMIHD

T1 sequence (P34969 whole entry): as above

For `COc1ccc(C(C)C)cc1CN1CCN(c2cccc3[nH]ccc23)CC1` [Ex 29, 4-(4-(5-isopropyl-2-methoxybenzyl)piperazin-1-yl)-1H-indole], the “affinity for the 5HT7 receptor (in words)” value [1] was “good affinity” and the EC50 (5HT7 receptor) was 6.62 nM.

`O=C(c1cccs1)C1CN2CCC1CC2` (stereo not drawn) [l, quinuclidin-3-yl(thiophen-2-yl)methanone] was tested, and the “affinity for the 5HT7 receptor (in words)” value [1] was “good affinity”.
